Measurements reported in the supplement of paper PMC13386468.

Columns and labels:
Assay in all cases: IC50 for competition of protein binding to Kinobeads
Conditions in all cases: assay detail: Kinobeads competition in P. falciparum blood-stage lysate
[1] = target: UniProt C0H4M6
[2] = target: UniProt C0H4S5
[3] = target: UniProt C0H4V6
[4] = target: UniProt C0H530
[5] = target: UniProt C6KSV0
[6] = target: UniProt C6KTB3
[7] = target: UniProt O77358
[8] = target: UniProt O97240
[9] = target: UniProt O97241
[10] = target: UniProt O97313
Sequence of UniProt O97313 (O97313 whole entry): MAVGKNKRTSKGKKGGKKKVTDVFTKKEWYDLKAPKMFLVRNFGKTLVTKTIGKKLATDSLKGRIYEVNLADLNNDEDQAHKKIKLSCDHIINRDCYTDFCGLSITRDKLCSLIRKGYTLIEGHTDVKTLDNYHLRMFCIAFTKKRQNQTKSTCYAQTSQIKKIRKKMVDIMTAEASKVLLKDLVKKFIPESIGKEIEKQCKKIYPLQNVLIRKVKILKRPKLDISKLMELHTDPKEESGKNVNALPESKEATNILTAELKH

[11] = target: UniProt Q7K6A8
[12] = target: UniProt Q8I1Q5
[13] = target: UniProt Q8I2U5
[14] = target: UniProt Q8I2X4
[15] = target: UniProt Q8I2Z8
[16] = target: UniProt Q8I305
[17] = target: UniProt Q8I328
[18] = target: UniProt Q8I3Y9
[19] = target: UniProt Q8I3Z5
Sequence of UniProt Q8I3Z5 (Q8I3Z5 whole entry): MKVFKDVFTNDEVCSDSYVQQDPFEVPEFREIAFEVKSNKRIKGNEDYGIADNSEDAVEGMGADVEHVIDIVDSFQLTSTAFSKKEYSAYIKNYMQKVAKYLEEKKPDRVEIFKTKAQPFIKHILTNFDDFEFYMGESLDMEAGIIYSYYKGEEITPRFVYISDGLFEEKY

[20] = target: UniProt Q8I4R5
[21] = target: UniProt Q8I502
[22] = target: UniProt Q8I566
Sequence of UniProt Q8I566 (Q8I566 whole entry): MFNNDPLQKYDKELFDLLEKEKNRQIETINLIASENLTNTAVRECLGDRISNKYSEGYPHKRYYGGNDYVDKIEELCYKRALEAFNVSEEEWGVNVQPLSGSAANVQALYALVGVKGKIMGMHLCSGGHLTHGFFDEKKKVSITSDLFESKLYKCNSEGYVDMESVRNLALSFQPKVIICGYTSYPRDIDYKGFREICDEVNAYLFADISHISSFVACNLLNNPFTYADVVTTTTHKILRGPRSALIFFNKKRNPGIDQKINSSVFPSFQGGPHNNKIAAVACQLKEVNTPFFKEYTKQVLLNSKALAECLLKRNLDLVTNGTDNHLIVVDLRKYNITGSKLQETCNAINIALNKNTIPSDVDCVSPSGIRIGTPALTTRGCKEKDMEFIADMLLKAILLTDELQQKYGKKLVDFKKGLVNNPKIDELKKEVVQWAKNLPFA

[23] = target: UniProt Q8I5F4
[24] = target: UniProt Q8I5K4
[25] = target: UniProt Q8IAR6
[26] = target: UniProt Q8IBN1
[27] = target: UniProt Q8IBS3
[28] = target: UniProt Q8IBV7
[29] = target: UniProt Q8IBY4
[30] = target: UniProt Q8IBZ2
[31] = target: UniProt Q8ID49
[32] = target: UniProt Q8IE99
[33] = target: UniProt Q8IES0
[34] = target: UniProt Q8IFM0
[35] = target: UniProt Q8IFN9
[36] = target: UniProt Q8IHR4
[37] = target: UniProt Q8IHR5
[38] = target: UniProt Q8IHR8
[39] = target: UniProt Q8II01
[40] = target: UniProt Q8III3
[41] = target: UniProt Q8IIR9
[42] = target: UniProt Q8IJI7
[43] = target: UniProt Q8IJN7
Sequence of UniProt Q8IJN7 (Q8IJN7 whole entry): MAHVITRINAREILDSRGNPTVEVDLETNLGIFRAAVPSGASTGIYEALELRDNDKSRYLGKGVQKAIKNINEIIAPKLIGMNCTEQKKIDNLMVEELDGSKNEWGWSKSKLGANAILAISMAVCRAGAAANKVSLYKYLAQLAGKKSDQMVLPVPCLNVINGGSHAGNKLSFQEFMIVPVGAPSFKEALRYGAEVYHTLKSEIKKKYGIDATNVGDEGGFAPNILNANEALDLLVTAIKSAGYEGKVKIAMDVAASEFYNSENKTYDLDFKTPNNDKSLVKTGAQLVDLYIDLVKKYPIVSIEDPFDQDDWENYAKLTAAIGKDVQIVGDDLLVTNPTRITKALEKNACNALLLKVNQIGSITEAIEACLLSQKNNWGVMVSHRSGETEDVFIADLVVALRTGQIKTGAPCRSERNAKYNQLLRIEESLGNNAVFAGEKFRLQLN

[44] = target: UniProt Q8IJX3
[45] = target: UniProt Q8IJZ3
[46] = target: UniProt Q8IKU1
[47] = target: UniProt Q8ILL5
[48] = target: UniProt Q8ILS7
[49] = target: UniProt Q8IM01
[50] = target: UniProt Q9TY95
Sequence of UniProt Q9TY95 (Q9TY95 whole entry): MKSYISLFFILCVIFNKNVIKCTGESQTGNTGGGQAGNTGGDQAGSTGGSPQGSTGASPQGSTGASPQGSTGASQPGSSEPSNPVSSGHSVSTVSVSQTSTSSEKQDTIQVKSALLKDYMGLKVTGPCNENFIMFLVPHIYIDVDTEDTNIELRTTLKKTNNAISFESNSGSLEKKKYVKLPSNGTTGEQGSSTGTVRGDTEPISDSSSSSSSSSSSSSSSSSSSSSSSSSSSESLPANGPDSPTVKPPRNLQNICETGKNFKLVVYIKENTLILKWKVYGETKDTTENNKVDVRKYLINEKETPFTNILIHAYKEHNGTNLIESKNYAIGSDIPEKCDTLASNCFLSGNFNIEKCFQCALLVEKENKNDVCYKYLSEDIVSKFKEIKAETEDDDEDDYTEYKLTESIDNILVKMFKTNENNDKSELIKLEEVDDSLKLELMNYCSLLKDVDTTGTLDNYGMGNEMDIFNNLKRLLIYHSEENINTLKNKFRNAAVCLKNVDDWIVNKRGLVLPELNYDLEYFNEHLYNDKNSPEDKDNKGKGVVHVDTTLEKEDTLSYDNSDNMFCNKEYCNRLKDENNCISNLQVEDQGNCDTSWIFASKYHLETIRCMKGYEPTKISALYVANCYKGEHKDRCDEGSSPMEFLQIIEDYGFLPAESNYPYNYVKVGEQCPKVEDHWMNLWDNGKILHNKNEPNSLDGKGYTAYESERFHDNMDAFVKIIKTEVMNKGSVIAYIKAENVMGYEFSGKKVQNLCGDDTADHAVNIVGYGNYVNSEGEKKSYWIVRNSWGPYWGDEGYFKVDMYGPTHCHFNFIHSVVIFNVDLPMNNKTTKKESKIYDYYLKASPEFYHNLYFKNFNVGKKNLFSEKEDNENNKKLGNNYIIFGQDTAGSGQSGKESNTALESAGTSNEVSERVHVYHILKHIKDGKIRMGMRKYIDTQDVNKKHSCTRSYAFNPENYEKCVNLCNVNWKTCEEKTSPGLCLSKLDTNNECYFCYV

[51] = target: UniProt Q9TY99

Measured: IC50
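Further: native unpurified kinases from lysate captured on beads bearing immobilized kinase inhibitors, with bead-bound kinases quantified by mass spectrometry across compound doses.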

Sequence of UniProt C0H4V6 (C0H4V6 whole entry): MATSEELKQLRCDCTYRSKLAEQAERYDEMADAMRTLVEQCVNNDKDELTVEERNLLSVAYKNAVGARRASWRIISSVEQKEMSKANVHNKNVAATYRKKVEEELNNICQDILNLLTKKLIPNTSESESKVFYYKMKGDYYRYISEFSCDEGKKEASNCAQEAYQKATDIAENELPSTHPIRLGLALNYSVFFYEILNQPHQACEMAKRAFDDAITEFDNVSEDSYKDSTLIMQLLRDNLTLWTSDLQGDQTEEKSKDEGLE
Sequence of UniProt O97240 (O97240 whole entry): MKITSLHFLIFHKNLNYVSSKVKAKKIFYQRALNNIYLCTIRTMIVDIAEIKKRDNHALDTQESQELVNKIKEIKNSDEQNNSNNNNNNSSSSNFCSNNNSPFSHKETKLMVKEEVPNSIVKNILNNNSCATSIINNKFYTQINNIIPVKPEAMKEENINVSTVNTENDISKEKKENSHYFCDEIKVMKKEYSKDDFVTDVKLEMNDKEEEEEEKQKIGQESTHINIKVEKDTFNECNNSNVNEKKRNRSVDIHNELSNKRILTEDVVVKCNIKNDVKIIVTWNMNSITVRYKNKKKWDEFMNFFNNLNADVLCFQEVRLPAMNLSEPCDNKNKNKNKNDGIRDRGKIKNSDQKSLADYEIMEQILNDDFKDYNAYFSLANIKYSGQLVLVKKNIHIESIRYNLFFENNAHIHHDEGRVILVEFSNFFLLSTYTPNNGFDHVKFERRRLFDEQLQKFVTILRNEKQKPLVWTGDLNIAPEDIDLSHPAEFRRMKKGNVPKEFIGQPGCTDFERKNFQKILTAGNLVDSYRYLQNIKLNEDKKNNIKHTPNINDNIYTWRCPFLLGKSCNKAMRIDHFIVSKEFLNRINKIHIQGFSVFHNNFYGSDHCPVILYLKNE

O=c1[nH]c2ccc(Cl)cc2c(NC2CN3CCC2CC3)c1-c1nc2ccccc2[nH]1 (stereo unspecified) [CHIR-124]
> 20 µM: [1] | [2] | [3] | [4] | [5] | [6] | [7] | [8] | [9] | [10] | [11] | [12] | [13] | [14] | [15] | [16] | [17] | [18] | [19] | [20] | [21] | [22] | [23] | [24] | [25] | [26] | [27] | [28] | [29] | [30] | [31] | [32] | [33] | [34] | [35] | [36] | [37] | [38] | [39] | [40] | [41] | [42] | [43] | [44] | [45] | [46] | [47] | [48] | [49] | [50] | [51]
